Reference: publication PMC4742250 (Biochimica et biophysica acta, 2008)
Where a SMILES comes first, the peptide text is derived from it. Bridges are numbered along the chain shown (N, C = ends).

What was measured:
Trx-gp5Δ22 interaction = Trx-gp5Δ22 interaction (Escherichia coli, UniProt P0AA25); test: biochemical; design: species or system E. coli (Trx); bacteriophage T7 (gp5Δ22)
E. coli Trx = E. coli Trx (Escherichia coli, UniProt P0AA25); test: dilution binding assay of biotinylated TP-2 to immobilized Trx
human Src SH3 domain = test: phage ELISA, binding to human Src SH3 domain; conditions: immobilized on polystyrene plates, O.D. 405 nm, triplicate wells
Src SH3 = conditions: read-out: KD, Src SH3 and its peptide ligand; ref [23]; cited from earlier work

Chain of E. coli Trx (P0AA25 whole entry, the tested form may be a part): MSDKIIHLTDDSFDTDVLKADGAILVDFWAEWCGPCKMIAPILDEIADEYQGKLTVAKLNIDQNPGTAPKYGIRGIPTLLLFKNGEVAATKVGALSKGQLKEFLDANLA
Chain of Trx-gp5Δ22 interaction (P0AA25 2-109, stated change not applied): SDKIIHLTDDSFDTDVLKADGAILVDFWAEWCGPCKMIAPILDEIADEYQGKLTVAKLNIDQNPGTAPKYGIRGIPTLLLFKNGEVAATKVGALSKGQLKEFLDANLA

| Compound | IC50 (Trx-gp5Δ22 interaction) | Kd (E. coli Trx) | reduction of peptide binding in the presence of DTT (E. coli Trx; 10 mM DTT, data not shown) | binding to human Src SH3 domain (human Src SH3 domain) | Kd (Src SH3) |
| --- | --- | --- | --- | --- | --- |
| CC[C@H](C)[C@H](NC(=O)[C@H](CC(C)C)NC(=O)[C@H](CCCNC(=N)N)NC(=O)[C@H](CC(=O)O)NC(=O)[C@@H]1CCCN1C(=O)[C@@H](NC(=O)[C@@H](NC(=O)[C@@H]1CSSC[C@H](NC(=O)[C@H](CC(N)=O)NC(=O)[C@@H](NC(=O)[C@H](CC(N)=O)NC(=O)[C@H](CCCNC(=N)N)NC(=O)[C@@H](N)CO)C(C)C)C(=O)N[C@@H](CC(N)=O)C(=O)N[C@@H](C)C(=O)N[C@@H](CO)C(=O)N[C@@H](C(C)C)C(=O)N1)[C@@H](C)O)[C@@H](C)CC)C(=O)N[C@H](C(=O)N[C@@H](CC(=O)O)C(=O)N[C@@H](CC(N)=O)C(=O)N1CCC[C@H]1C(=O)NCC(=O)N[C@@H](CO)C(=O)NCC(=O)N[C@@H](CO)C(N)=O)[C@@H](C)O [TP-2] (H-SRNVNCNASVCTIPDRLITDNPGSGS-NH2; disulfide 6-11) | ~10 µM | 2000 nM | > 50% |  |  |
| H-SSRPLPPLPGS-NH2 [Src SH3 peptide ligand] |  |  |  | binds to Src SH3 domain | ~5 µM |
